The results in this text go back to patent US7132287B2, “Method for neural stem cell differentiation using 5HT-1A agonists” (Psychiatric Genomics, Inc., priority 2001, dated 2006).

The experiment concerns cerebellar stem cells. In words: Neuronal differentiation of cerebellar stem cells (TuJ1 positive cells). Format: cell-based, rat. The text has this:
Isolation and quantitation of cerebellar stem cells. Neural stem cells were isolated from rat embryos (obtained from Taconic) at the 19th day of gestation (E19). The rats were sacrificed by inhalation of excess carbon dioxide. The abdomen of the rat was cleaned with 70% ethanol and the uterus was removed quickly and aseptically on the bench top. The uterus was placed in ice cold PBS (GIBCO Cat. # 20012-027) in a 200-ml beaker.
The cerebellar tissue was dissected under a microscope according to the following procedure and collected in a 15-ml tube containing HBSS on ice. The dissection should be completed in 1–2 hours (optimally) and the pH of the HBSS should remain neutral. First, the neck of the embryos was severed towards the bottom and the heads were collected in cold PBS. Next, the skin and scalp was removed from neck and head of the embryo. The brain, including the cerebral cortex, midbrain, cerebellum and some of the spinal cord, was removed by dissection under a microscope and transfered into a clean dish with fresh, cold PBS. The cerebellar region was dissected and cleaned of extraneous tissue, including removal of the meninges, and transferred into cold HBSS in a clean 15 ml tube.
The tube containing the cerebellar tissue was centrifuged at 1,000 RPM for 2 min at 15 C., followed by slow, careful aspiration of the HBSS supernatant (care should be taken to avoid aspirating tissue). (It is best to limit the centrifugation steps as much as possible.) About 1 to 3 ml of DMEM/F12/N2 medium (see below) was immediately added to the remaining tissue; the volume of medium depends on the quantity of the dissected tissue. The tissue was gently triturated about 8 to 10 times using a P-1000 Pipetteman until the tissue was dissociated (as evidenced by cloudy solution), then the tube was incubated in the hood for 5 minutes at room temperature to permit settlement of small particles of undissociated tissue. The supernatant was then transferred into a fresh tube, taking care to avoid the smaller particles of tissue that remained at the bottom of the tube.
Plating and expansion of cerebellar stem cells. The triturated cell suspension of E19 rat cerebellum was seeded into pre-coated 10 cm dishes at 2×10^6 cells per dish. This is denoted as the P0 culture (passage 0). The cells were grown in 5 ml of DMEM/F12/N2 supplemented with 25 mg/L insulin and 10 ng/ml bFGF at 37 C, 5% CO2 and 90% humidity.
Cells were fed daily with 10 ng/ml bFGF. The medium was changed one day after the cells were seeded, and thereafter every other day. On about day 4 of the culture, or when cells reached 70% confluence, the culture was passaged (see “Passage of cerebellar stem cells” below) and seeded into 10 cm dishes at an initial density of 2×10^6 cells per dish. This is denoted as the P1 culture (passage 1). The passaged cells at P1 were grown in DMEM/F12/N2 medium supplemented with 25 mg/L insulin and 10 ng/ml bFGF. The medium was changed every other day.
After two days of culture, some cells were passaged into a P2 culture, and some were seeded in 12-well tissue culture plates for experimental use. One ml of DMEM/F12/N2 medium was used per well of a 12-well plate at 2×10^4 cells per well. Experimental treatments were initiated the day after passage.
Drug treatments. Stem cells obtained as described above were treated with drugs and subjected to differentiation protocols in the second passage. Cells were plated at a density of 1×10^4 cells per well of a 12-well petridish (Falcon).
Drug treatments were started on the next day. […] The WAY 100635 antagonist compound was used simultaneously with buspirone or serotonin in the blocking experiments.

Turning to `O=C1CC2(CCCC2)CC(=O)N1CCCCN1CCN(c2ncccn2)CC1` [buspirone, 8-[4-[4-(2-pyrimidinyl)-1-piperazinyl]butyl]-8-azaspiro[4,5]decane-7,9-dione], the “% Tuj 1 positive cells” value runs as follows: (10 nM, Table 2 experiment) 40.0 ± 3.7%; (10 nM, Table 3 experiment) 30.7 ± 2.33%; (30 nM, Table 2 experiment) 41.2 ± 6.7%; (30 nM, Table 3 experiment) 37.4 ± 2.6%; (100 nM, Table 2 experiment) 33.1 ± 2.6%; (100 nM, Table 3 experiment) 46.6 ± 3.8%. Further, the “% Tuj 1 positive cells” value reads like this: (300 nM, Table 2 experiment) 26.1 ± 3.9%; (1000 nM, Table 2 experiment) 21.9 ± 3.9%; (1000 nM, Table 3 experiment) 40.3 ± 2.8%. Further, the “% TuJ1 positive cells” value came to 54.4 ± 2.1% (100 nM, Table 5 experiment); 56.8 ± 7.1% (500 nM, Table 4 experiment); 64.8 ± 2.1% (500 nM, Table 5 experiment); 67.9 ± 10.2% (10 μM, Table 5 experiment); 68.5 ± 6.5% (100 μM, Table 5 experiment). Further, the “concentration inducing the highest percentage of neuronal differentiation” value (FIG. 1, lane 4) is reported as ~100 nM. Further, the “neuronal differentiation of neural stem cells (percent of neurons, TuJ1 positive)” value (FIG. 1, lanes 2–5, dosage range 10 nM to 300 nM, about 6 days) was 40–55%. Besides, for the setting “FIG. 2, lane 3, buspirone 500 nM, untreated control less than 20%”, the differentiation of neurons came out at 50%. Also, under “concentrations from 10 nm to 100 um, Tables 2–5”, the “promotion of neuronal differentiation of neural stem cells (in words)” value is “effective at promoting neuronal differentiation”.
